Laboratory results taken from PubChem BioAssay (NCI).
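The compound was tested at five concentrations on cells cultured in 96-well plates, with a 48-hour exposure period. The concentration for 50% growth inhibition is given as GI50. TGI: concentration producing complete growth inhibition.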

Columns and labels:
Test in all cases: inhibition of tumour cell growth, NCI panel, 48 h
UACC-62 melanoma = test system: UACC-62 melanoma
KM12 colon = test system: KM12 colon
EKVX NSCLC = test system: EKVX NSCLC
SF-539 CNS = test system: SF-539 CNS
786-0 renal = test system: 786-0 renal
SK-MEL-28 melanoma = test system: SK-MEL-28 melanoma
U251 CNS = test system: U251 CNS
OVCAR-4 ovarian = test system: OVCAR-4 ovarian
ACHN renal = test system: ACHN renal
HL-60(TB) leukemia = test system: HL-60(TB) leukemia
SR leukemia = test system: SR leukemia
A549 NSCLC = test system: A549 NSCLC
MALME-3M melanoma = test system: MALME-3M melanoma
IGROV1 ovarian = test system: IGROV1 ovarian
HS 578T breast = test system: HS 578T breast
TK-10 renal = test system: TK-10 renal
OVCAR-3 ovarian = test system: OVCAR-3 ovarian
SF-295 CNS = test system: SF-295 CNS
MCF7 breast = test system: MCF7 breast
SNB-19 CNS = test system: SNB-19 CNS
NCI-H226 lung = test system: NCI-H226 lung
RXF 393 renal = test system: RXF 393 renal
UO-31 renal = test system: UO-31 renal
HOP-62 NSCLC = test system: HOP-62 NSCLC
T-47D breast = test system: T-47D breast
M14 melanoma = test system: M14 melanoma
OVCAR-8 ovarian = test system: OVCAR-8 ovarian
SK-MEL-5 melanoma = test system: SK-MEL-5 melanoma
K-562 leukemia = test system: K-562 leukemia
LOX IMVI melanoma = test system: LOX IMVI melanoma
CCRF-CEM leukemia = test system: CCRF-CEM leukemia
HCC-2998 colon = test system: HCC-2998 colon
SF-268 CNS = test system: SF-268 CNS
HOP-92 NSCLC = test system: HOP-92 NSCLC
MOLT-4 leukemia = test system: MOLT-4 leukemia
A498 renal = test system: A498 renal
NCI/ADR-RES ovarian = test system: NCI/ADR-RES ovarian
UACC-257 melanoma = test system: UACC-257 melanoma
RPMI-8226 leukemia = test system: RPMI-8226 leukemia
HCT-116 colon = test system: HCT-116 colon
DU-145 prostate = test system: DU-145 prostate
SNB-75 CNS = test system: SNB-75 CNS
NCI-H460 lung = test system: NCI-H460 lung
COLO 205 colon = test system: COLO 205 colon
NCI-H23 lung = test system: NCI-H23 lung
OVCAR-5 ovarian = test system: OVCAR-5 ovarian
SK-MEL-2 melanoma = test system: SK-MEL-2 melanoma
MDA-MB-435 = test system: MDA-MB-435
BT-549 breast = test system: BT-549 breast
SK-OV-3 ovarian = test system: SK-OV-3 ovarian
HT29 colon = test system: HT29 colon
NCI-H522 lung = test system: NCI-H522 lung
CAKI-1 renal = test system: CAKI-1 renal
PC-3 prostate = test system: PC-3 prostate
HCT-15 colon = test system: HCT-15 colon
SW-620 colon = test system: SW-620 colon
SN12C renal = test system: SN12C renal
MDA-MB-231 breast = test system: MDA-MB-231 breast

For `COc1ccc2c(c1)C(=O)c1c-2n(CCCNCCO)c(=O)c2ccccc12`, the GI50 (UACC-62 melanoma) was 312 nM, the TGI (UACC-62 melanoma) was 1850 nM and the GI50 (KM12 colon) was 200 nM. The TGI (KM12 colon) was 1240 nM, the GI50 (EKVX NSCLC) was 349 nM and the TGI (EKVX NSCLC) was 1500 nM. For the same molecule, the GI50 (SF-539 CNS) was 76.4 nM, the TGI (SF-539 CNS) was 408 nM and the GI50 (786-0 renal) was 67.8 nM. The TGI (786-0 renal) was 568 nM, the GI50 (SK-MEL-28 melanoma) was 897 nM and the TGI (SK-MEL-28 melanoma) was 2490 nM. The GI50 (U251 CNS) was 82.1 nM, the TGI (U251 CNS) was 1170 nM and the GI50 (OVCAR-4 ovarian) was 301 nM. For the same molecule, the TGI (OVCAR-4 ovarian) was 2230 nM, the GI50 (ACHN renal) was 39.7 nM and the TGI (ACHN renal) was 240 nM. The GI50 (HL-60(TB) leukemia) was 169 nM, the TGI (HL-60(TB) leukemia) was 1690 nM and the GI50 (SR leukemia) was under 20.7 nM. For the same molecule, the TGI (SR leukemia) was 1800 nM, the GI50 (A549 NSCLC) was 62.6 nM and the TGI (A549 NSCLC) was 310 nM. It also gave a GI50 (MALME-3M melanoma) of 178 nM, a TGI (MALME-3M melanoma) of 1240 nM and a GI50 (IGROV1 ovarian) of 150 nM. The TGI (IGROV1 ovarian) was 2330 nM, the GI50 (HS 578T breast) was 262 nM and the TGI (HS 578T breast) was 2240 nM. For the same molecule, the GI50 (TK-10 renal) was 316 nM, the TGI (TK-10 renal) was 3030 nM and the GI50 (OVCAR-3 ovarian) was 331 nM. For the same molecule, the TGI (OVCAR-3 ovarian) was 1410 nM, the GI50 (SF-295 CNS) was 61.7 nM and the TGI (SF-295 CNS) was 425 nM. For the same molecule, the GI50 (MCF7 breast) was under 11.5 nM, the TGI (MCF7 breast) was 434 nM and the GI50 (SNB-19 CNS) was 117 nM. The TGI (SNB-19 CNS) was 1060 nM, the GI50 (NCI-H226 lung) was 486 nM and the TGI (NCI-H226 lung) was 2310 nM. The GI50 (RXF 393 renal) was 963 nM, the TGI (RXF 393 renal) was 3950 nM and the GI50 (UO-31 renal) was 90.4 nM. For the same molecule, the TGI (UO-31 renal) was 618 nM, the GI50 (HOP-62 NSCLC) was 57.5 nM and the TGI (HOP-62 NSCLC) was 462 nM. The GI50 (T-47D breast) was 56 nM, the TGI (T-47D breast) was 1620 nM and the GI50 (M14 melanoma) was 320 nM. The TGI (M14 melanoma) was 1480 nM, the GI50 (OVCAR-8 ovarian) was 90.8 nM and the TGI (OVCAR-8 ovarian) was 1900 nM. For the same molecule, the GI50 (SK-MEL-5 melanoma) was 63.4 nM, the TGI (SK-MEL-5 melanoma) was 202 nM and the GI50 (K-562 leukemia) was 121 nM. The GI50 (LOX IMVI melanoma) was 47.3 nM, the TGI (LOX IMVI melanoma) was 224 nM and the GI50 (CCRF-CEM leukemia) was 22.7 nM. It also gave a TGI (CCRF-CEM leukemia) of 1050 nM, a GI50 (HCC-2998 colon) of 109 nM and a TGI (HCC-2998 colon) of 479 nM. For the same molecule, the GI50 (SF-268 CNS) was 120 nM, the TGI (SF-268 CNS) was 1430 nM and the GI50 (HOP-92 NSCLC) was 87 nM. The TGI (HOP-92 NSCLC) was 531 nM, the GI50 (MOLT-4 leukemia) was under 18.2 nM and the TGI (MOLT-4 leukemia) was 5280 nM. For the same molecule, the GI50 (A498 renal) was 80.7 nM, the TGI (A498 renal) was 520 nM and the GI50 (NCI/ADR-RES ovarian) was 807 nM. The TGI (NCI/ADR-RES ovarian) was 3380 nM, the GI50 (UACC-257 melanoma) was 541 nM and the TGI (UACC-257 melanoma) was 2130 nM. The GI50 (RPMI-8226 leukemia) was 72.7 nM, the TGI (RPMI-8226 leukemia) was 594 nM and the GI50 (HCT-116 colon) was 79.9 nM. For the same molecule, the TGI (HCT-116 colon) was 534 nM, the GI50 (DU-145 prostate) was 46.9 nM and the TGI (DU-145 prostate) was 331 nM. The GI50 (SNB-75 CNS) was 261 nM, the TGI (SNB-75 CNS) was 1250 nM and the TGI (NCI-H460 lung) was 137 nM. The GI50 (COLO 205 colon) was 74.6 nM, the TGI (COLO 205 colon) was 1650 nM and the GI50 (NCI-H23 lung) was 120 nM. For the same molecule, the TGI (NCI-H23 lung) was 563 nM, the GI50 (OVCAR-5 ovarian) was 346 nM and the TGI (OVCAR-5 ovarian) was 1110 nM. For the same molecule, the GI50 (SK-MEL-2 melanoma) was 734 nM, the TGI (SK-MEL-2 melanoma) was 2570 nM and the GI50 (MDA-MB-435) was 322 nM. For the same molecule, the TGI (MDA-MB-435) was 1620 nM, the GI50 (BT-549 breast) was 127 nM and the TGI (BT-549 breast) was 672 nM. For the same molecule, the GI50 (SK-OV-3 ovarian) was 218 nM, the TGI (SK-OV-3 ovarian) was 1420 nM and the GI50 (HT29 colon) was 76.4 nM. For the same molecule, the TGI (HT29 colon) was 1760 nM, the GI50 (NCI-H522 lung) was 17.4 nM and the TGI (NCI-H522 lung) was 95.5 nM. It also gave a GI50 (CAKI-1 renal) of 107 nM, a TGI (CAKI-1 renal) of 659 nM and a GI50 (PC-3 prostate) of 272 nM. For the same molecule, the TGI (PC-3 prostate) was 2290 nM, the GI50 (HCT-15 colon) was 154 nM and the TGI (HCT-15 colon) was 1180 nM. The GI50 (SW-620 colon) was 53 nM, the TGI (SW-620 colon) was 1460 nM and the GI50 (SN12C renal) was 118 nM. The TGI (SN12C renal) was 1420 nM, the GI50 (MDA-MB-231 breast) was 543 nM and the TGI (MDA-MB-231 breast) was 2330 nM.
